According to PMC12307812 (Nature Communications, 2025):

Experiments:
[1] = tested on: SARS-CoV-2 Delta variant AY.1; test: microbe, parasite or virus in culture; type: cell-based; conditions: for mean log10(PFU/ml): AY.1; for IC50: Severe acute respiratory syndrome coronavirus 2, Calu-3, 48 h, read-out: IC50, live SARS-CoV-2 infection AY.1 (Delta)
[2] = tested on: SARS-CoV-2 Omicron variant KP.3.1.1; test: microbe, parasite or virus in culture; type: cell-based; conditions: for mean log10(PFU/ml): KP.3.1.1; for IC50: Severe acute respiratory syndrome coronavirus 2, Calu-3, 48 h, read-out: IC50, live SARS-CoV-2 infection KP.3.1.1

SMILES | mean log10(PFU/ml) ([1]; concentration 5 nM) | mean log10(PFU/ml) ([1]; concentration 50 nM) | mean log10(PFU/ml) ([1]; concentration 500 nM) | mean log10(PFU/ml) ([1]; concentration 5000 nM) | mean log10(PFU/ml) ([1]; concentration 50000 nM) | IC50 [1] | mean log10(PFU/ml) ([2]; concentration 5 nM) | mean log10(PFU/ml) ([2]; concentration 50 nM) | mean log10(PFU/ml) ([2]; concentration 500 nM) | mean log10(PFU/ml) ([2]; concentration 5000 nM) | mean log10(PFU/ml) ([2]; concentration 50000 nM) | IC50 [2]
CC(C)(C)NC(=O)N1CCN(C(=O)N2C(=O)C(CCCNC(=N)N)C2C(=O)O)CC1 (stereo not drawn) [BMS-262084] | 7.781 log10(PFU/ml) | 5.891 log10(PFU/ml) | 3.176 log10(PFU/ml) | 2.572 log10(PFU/ml) | 2.538 log10(PFU/ml) | 8.66 nM | 7.893 log10(PFU/ml) | 4.129 log10(PFU/ml) | 1.9 log10(PFU/ml) | 1.699 log10(PFU/ml) | 1.498 log10(PFU/ml) | 8.03 nM
CN(C)C(=O)COC(=O)Cc1ccc(OC(=O)c2ccc(NC(=N)N)cc2)cc1 [camostat] | 7.732 log10(PFU/ml) | 7.059 log10(PFU/ml) | 6.615 log10(PFU/ml) | 4.492 log10(PFU/ml) | 3.6181 log10(PFU/ml) | 22.1 nM | 7.955 log10(PFU/ml) | 6.207 log10(PFU/ml) | 5.0218 log10(PFU/ml) | 1.958 log10(PFU/ml) | 1.699 log10(PFU/ml) | 38.3 nM
